Experimental data reported in article PMC8228075, “In Vitro and In Silico Characterization of G-Protein Coupled Receptor (GPCR) Targets of Phlorofucofuroeckol-A and Dieckol” (Marine Drugs, 2021).
One block for each molecule: values may come before it.

What was measured:
Format in all cases: cell-based
[1] = biological target: T1, Cannabinoid receptor 1 (CB1R) (Homo sapiens, UniProt P21554); assay: hCB1R functional antagonist assay (cAMP, HTRF, CHO cells); conditions: reference antagonist; read-out: Reference Drugs, IC50
T1 construct: host or cells: CHO cells
T1 sequence (P21554 whole entry): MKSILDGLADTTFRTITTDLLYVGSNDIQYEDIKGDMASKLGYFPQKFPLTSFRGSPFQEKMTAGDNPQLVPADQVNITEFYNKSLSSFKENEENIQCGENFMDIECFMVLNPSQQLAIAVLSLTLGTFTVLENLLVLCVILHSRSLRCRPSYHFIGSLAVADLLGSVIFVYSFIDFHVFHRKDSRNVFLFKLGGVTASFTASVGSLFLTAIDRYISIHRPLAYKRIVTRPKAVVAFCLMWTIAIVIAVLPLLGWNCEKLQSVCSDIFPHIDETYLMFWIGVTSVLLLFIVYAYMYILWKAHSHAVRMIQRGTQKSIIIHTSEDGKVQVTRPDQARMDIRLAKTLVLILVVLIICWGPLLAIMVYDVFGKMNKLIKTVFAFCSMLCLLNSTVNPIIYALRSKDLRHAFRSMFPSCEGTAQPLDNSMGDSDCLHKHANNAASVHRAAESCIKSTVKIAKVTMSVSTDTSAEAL
Description: (§1) The in-house assay protocol and experimental conditions are reported in our previous reports. The functional effect of dieckol and PFF-A was characterized based on their modulation effect on cytosolic Ca^2+ ion mobilization using a fluorimetric detection method or by measuring their effect on cAMP modulation using homogeneous time-resolved fluorescence (HTRF) detection.
(§2) Functional activity of phlorotannins over hA2AR, hα2CAR, hCB1R, GLP-1R, and h5-HT1BR was determined by measuring their effects on cAMP production by the HTRF detection method using transected cells expressing human cloned receptors.
The transfected CHO cells were suspended in HBSS buffer (Invitrogen) complemented with 20 mM HEPES (pH 7.4). […] After 30 min of incubation at 37 °C, the cells were lysed and the fluorescence acceptor (D2-labeled cAMP) and fluorescence donor (anti-cAMP antibody labeled with europium cryptate) were added.

h5-HT1BR = h5-HT1BR (Homo sapiens, UniProt P28222); assay: h5-HT1BR functional antagonist assay (cAMP, HTRF, Hela cells)
Sequence of h5-HT1BR (P28222 whole entry): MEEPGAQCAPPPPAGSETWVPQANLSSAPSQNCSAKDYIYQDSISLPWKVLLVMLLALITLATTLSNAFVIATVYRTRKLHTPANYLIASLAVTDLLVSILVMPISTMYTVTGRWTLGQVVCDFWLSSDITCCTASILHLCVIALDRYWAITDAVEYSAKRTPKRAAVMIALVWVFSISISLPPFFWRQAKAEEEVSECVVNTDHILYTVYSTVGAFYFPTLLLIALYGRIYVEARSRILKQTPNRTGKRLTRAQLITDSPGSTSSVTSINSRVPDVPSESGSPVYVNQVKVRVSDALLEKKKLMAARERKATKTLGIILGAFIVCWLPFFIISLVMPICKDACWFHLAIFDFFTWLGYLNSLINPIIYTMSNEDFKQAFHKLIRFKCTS
Description: as §1, §2
Concisely, a plasmid containing the GPCR gene of interest (5-HT1B) was transfected into Hela cells. The resulting stable transfectants were suspended in HBSS buffer (Invitrogen, Carlsbad, CA, USA) containing 20 mM HEPES (pH 7.4), […], 1 mg/mL glucose, and 500 μM IBMX and distributed in microplates at a density of 2 × 10^4 cells/well. […] Then, the cells were lysed and a fluorescence acceptor (D2-labeled cAMP) and fluorescence donor (anti-cAMP antibody with europium cryptate) were added following 60 min incubation at RT.

[2] = biological target: T2, Alpha-2A adrenergic receptor (hα2AAR) (Homo sapiens, UniProt P08913); assay: hα2AAR functional antagonist assay (Ca2+ mobilization, rat basophil leukemia cells); conditions: reference antagonist; read-out: Reference Drugs, IC50
T2 construct: host or cells: rat basophil leukemia cells
T2 sequence (P08913 1-465): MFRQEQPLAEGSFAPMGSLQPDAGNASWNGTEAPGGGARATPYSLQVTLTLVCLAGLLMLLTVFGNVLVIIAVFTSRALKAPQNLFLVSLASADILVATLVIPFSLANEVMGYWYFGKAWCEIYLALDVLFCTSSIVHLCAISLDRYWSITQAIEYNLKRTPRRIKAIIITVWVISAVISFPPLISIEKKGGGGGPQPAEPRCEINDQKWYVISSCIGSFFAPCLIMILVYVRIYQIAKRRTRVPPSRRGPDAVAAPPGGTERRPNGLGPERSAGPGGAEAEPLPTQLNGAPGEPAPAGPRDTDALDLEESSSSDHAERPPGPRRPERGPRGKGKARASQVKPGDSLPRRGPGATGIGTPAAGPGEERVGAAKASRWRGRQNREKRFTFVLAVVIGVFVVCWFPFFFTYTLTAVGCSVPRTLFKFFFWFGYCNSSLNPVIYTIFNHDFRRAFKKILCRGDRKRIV
Source text: as §1
The rat basophil leukemia cells were distributed in microplates at a density of 1.1 × 10^4 cells/well after suspending in a HBSS buffer (Invitrogen) containing 20 mM HEPES. Then, the fluorescent probe (Fluo8, AAT Bioquest) mixed with probenecid in HBSS buffer (Invitrogen) complemented with 20 mM Hepes (Millipore) (pH 7.4) was added into each well incubated for 60 min at 30 °C. Thereafter, the assay plates were positioned in a microplate reader (FlipR Tetra, Molecular Device) and we added test compounds, reference agonist/antagonist or HBSS buffer (basal control). Change in fluorescence intensity which varies proportionally to the free cytosolic Ca^2+ ion concentration was measured.

[3] = biological target: T3, Free fatty acid receptor 1 (FFA1R) (GPR40) (Homo sapiens, UniProt O14842); assay: FFA1R/GPR40 functional agonist assay (Ca2+ mobilization, HEK-293 cells); conditions: reference agonist; read-out: Reference Drugs, EC50
T3 construct: host or cells: HEK-293 cells
T3 sequence (O14842 whole entry): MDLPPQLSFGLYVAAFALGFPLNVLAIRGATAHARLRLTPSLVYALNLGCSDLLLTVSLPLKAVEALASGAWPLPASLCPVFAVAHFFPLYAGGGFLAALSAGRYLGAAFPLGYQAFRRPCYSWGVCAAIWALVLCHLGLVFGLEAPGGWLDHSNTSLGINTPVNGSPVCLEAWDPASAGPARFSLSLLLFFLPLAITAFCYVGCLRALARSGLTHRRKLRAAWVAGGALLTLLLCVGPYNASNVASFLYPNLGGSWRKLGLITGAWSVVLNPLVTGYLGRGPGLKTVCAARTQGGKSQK
Description: The in-house assay protocol and experimental conditions are reported in our previous reports. […] Then, the mixture of fluorescent probe (Fluo4 Direct, Invitrogen) and probenecid in HBSS buffer (Invitrogen) complemented with 20 mM Hepes (Invitrogen) (pH 7.4) was added into each well and incubated for 60 min at 37 °C, followed by 15 min incubation at 22 °C. Thereafter, the assay plates were positioned in a CellLux microplate reader (PerkinElmer, Waltham, MA, USA) which was used for the addition of the following: For agonist assay-test compound, reference agonist, or HBSS buffer (basal control). Linoleic acid at 100 μM was added in separate assay wells for stimulated control measurement.

SMILES: Cc1c(C(=O)NN2CCOCC2)nn(-c2ccc(Cl)cc2Cl)c1-c1ccc(I)cc1 [AM 281, reference compound]
IC50 [1]: 77 nM

IC50 (h5-HT1BR): 23 nM
SMILES: CN(C)CCCc1cc(C(=O)Nc2ccc(-c3ccncc3)cc2)ccc1O [GR55562, reference compound]

SMILES: COC1(C2=NCCN2)COc2ccccc2O1 (stereo not shown) [RX-821002, reference compound]
IC50 [2]: 17 nM

EC50 [3]: 10000 nM
SMILES: CCCCC/C=C\C/C=C\CCCCCCCC(=O)O [linoleic acid, reference compound]
